Experimental data taken from patent US20130236473A1, “THERAPEUTIC AGENTS AND PROPHYLACTIC AGENTS FOR SYMPTOMS ACCOMPANYING AUTOIMMUNE DISEASES, INFLAMMATORY DISEASES, ALLERGY DISEASES AND ORGAN TRANSPLANTS” (OSAKA UNIVERSITY, priority 2010, published 2013).

Test system: IL-6 amplifier
Test: Example 2: PI3 kinase inhibitors, mIL-6 protein production on IL-6 amplifier activation in BC-1 cells (ELISA)
Type: cell-based
Conditions: 24 hours, conditions (a) to (d), 0 or 100 ng/ml mouse epiregulin, LY294002 0.1-10, PIK75 0.01-1.0 micromole/L
Procedure: 2×10^5 mouse BC-1 cells were cultured in an RPMI 1640 medium for 24 hours under each of the following conditions: • (a) in the presence of 10% FBS, • (b) with the addition of 50 ng/ml of hIL-6 protein and 50 ng/ml of hIL-6R protein (hereinafter referred to as “hIL-6/6R proteins”) and in the presence of 10% FBS, • (c) with the addition of 50 ng/ml of mIL-17A protein and in the presence of 10% FBS, • (d) with the addition of hIL-6/6R proteins at 50 ng/ml and mIL-17A protein at 50 ng/ml and in the presence of 10% FBS, • (e) in the absence of FBS, • (f) with the addition of hIL-6/6R proteins each at 50 ng/ml and in the absence of FBS, • (g) with the addition of 50 ng/ml of mIL-17A protein and in the absence of FBS, or • (h) with the addition of hIL-6/6R proteins each at 50 ng/ml and mIL-17A protein at 50 ng/ml and in the absence of FBS. […]
After the culture, the production amount of mouse IL-6 protein under each condition was quantified by an ELISA method. […]

## O=c1cc(N2CCOCC2)oc2c(-c3ccccc3)cccc12 [LY294002, 2-(4-Morpholinyl)-8-phenyl-4H-1-benzopyran-4-one]
  increase in the expression amount of mIL-6 protein due to the activation of IL-6 amplifier: can be suppressed
